What was measured:
[1] = system: NativeSkin® skin explants (Genoskin); assay: Histological analysis (haematoxylin/eosin) of NativeSkin skin explant ex vivo after UVA irradiation; assay type: cell-based, human; conditions: composition 0.9 mmol/L topical, 60 J/cm^2 UVA every day for 3 days, FIG. 5
Protocol: (§1) The test was carried out on NativeSkin® skin explants (Genoskin), a biopsy of skin bathed in a solid, nourishing matrix while its epidermal surface is preserved in contact with the air. The biopsy is firmly anchored in the matrix and sealed in order to prevent any lateral diffusion of formulation intended for topical application.
(§2) The study was carried out on a donor (phototype 2) under the following conditions.
(§3) The compounds tested are implemented in a composition containing them at 0.9 mmol/L in a mixture of Carbopol® (0.5% p/p), DMSO (0.1% p/p) and H2O (qsp 100%).
(§4) The samples are irradiated at 60 J/cm^2 UVA every day for 3 days. A treatment is carried out for 24 h before the irradiation, by application of the composition tested onto the sample (deposition of 40 μl of composition onto the stratum corneum), then a post-treatment of 24 h after the irradiation, in the same manner.
(§5) A Control of the sample of skin non-irradiated and a Control of the sample of skin irradiated are also carried out, both with application of the vehicle alone (0.5% Carbopol®, 0.1% DMSO, H2O). The Control of the non-irradiated sample of skin is introduced into the irradiator in a sheet of aluminium, in such a way as to protect it against UVs.
(§6) The samples are sampled, cut (according to the conventional method of cryo-sectioning implementing paraffin and freezing) and fixed in 1 ml of formalin for 24 h.
(§7) The explants are then included in paraffin and sections of 5 μm are made.
The slides are then coloured with haematoxylin (basic compound marking the nuclei) and eosin (acidic compound marking the conjunctive tissue).
(§8) The analysis of the marking is carried out with a DM5000B fluorescence microscope (Leica Microsystems) and 10 images are acquired for each sample.

[2] = system: NativeSkin® skin explants (Genoskin); assay: Breaks in the DNA (γ-H2AX marking) of NativeSkin skin explant ex vivo after UVA irradiation; assay type: cell-based, human; conditions: composition 0.9 mmol/L topical, 60 J/cm^2 UVA every day for 3 days, n=10 images, FIG. 7
Protocol: as §1, §2, §3, §4, §5, §6, §7
The slides obtained are also marked by immunohistochemistry with the biomarker γ-H2Ax.
as §8
For the marking with γ-H2Ax, for each image, the total number of nuclei is detected with 4′,6-diamidino-2-phenylindole (dapi). In the same image, the number of nuclei having the marking is quantified. The ratio of the number of positive nuclei, multiplied by 100, to the number of total nuclei, is calculated, in order to obtain a percentage (=(positive nuclei*100)/total nuclei), n=10 per sample.
A statistical analysis is carried out with a student's test by comparing the samples to the control (p value[…], p value<0.05**, p value<0.005***, ns not significant).

NHEK cells = assay: Survival (WST1) of NHEK keratinocytes exposed to cigarette extract, comparison with caffeic acid; assay type: cell-based, human; conditions: compound 10 ppm pretreatment 24 h and treatment 24 h, cigarette extract 1/50, cigarette extract alone 55% survival, FIG. 4
Protocol: This study aims to compare the protective or repairing effect of the compounds according to the invention (Ia) and (Ib) with respect to the damage induced on the skin by a cigarette extract. For comparison, caffeic acid (supplier: Acros) is also tested. This acid forms a basic unit of the compounds (Ia) and (Ib) according to the invention.
The NHEK cells are inoculated in a 96-well plate in a suitable medium (Promocell), at a rate of 9000 cells per well, and incubated 24 h at 37° C. and 5% carbon dioxide.
The compounds to be tested are prepared as follows: • (Ia): 10 mg of compound+909 μL of DMSO • (Ib): 7 mg of compound+636 μL of DMSO • caffeic acid: 10 mg of compound+909 μL of DMSO
Each stock solution above is diluted 1000 times, to 10 ppm in the culture medium, then the solutions obtained are filtered by means of a nylon filter (0.22 μm). The final solutions are concentrated to 10 ppm in 0.1% DMSO.
Solutions at 20 ppm in 0.2% DMSO are also prepared in a similar manner, for dilution in the cigarette extract.
An extract of 20 cigarettes is prepared as indicated in example 14 above. This extract is then diluted to 1/50 in the culture medium; or to 2/50 in the culture medium, then to 1/2 in the culture medium, to which the compound to be tested is added at 20 ppm.
The cells are pretreated for 24 h with the compound to be tested at 10 ppm in the culture medium.
The cells are then treated with the cigarette extract diluted to 1/50th with or without the compound tested at 10 ppm for 24 h.
3 h before the end of the test, 10 μl of WST1 cellular proliferation reactant (Roche) are added into each well. The absorbance at 450 nm is measured before and after the addition of WST1 reactant, by means of a Multiskan® reader. The treated cells are compared to the untreated cells and to the cells exposed to the cigarette extract.

IL-8 = IL-8 assay (ELISA) in culture supernatants of NHEK after induction with IL-1β; assay type: cell-based, human; conditions: IL-1β 10 ng/ml 24 h, then substance 24 h, compound (Ia) 3 ppm, dexamethasone 0.4 ppm, CTL 0.23, CTL without IL-1β 0.06
Protocol: This study is carried out on normal human Keratinocytes (NHEK).
In this example, the anti-inflammatory properties of the compound (Ia) are evaluated by the assay of the IL-8, after the application of the cytokine IL-1β at 10 ng/ml onto NHEKs. IL-8 is a major inflammatory cytokine produced first of all during the inflammatory response of the keratinocytes. The quantification of the IL-8 in the culture supernatants allows an evaluation of the inflammatory state of the cells.
The IL-1β is added to the culture medium of the NHEKs at a rate of 10 ng/ml for 24 h. After incubation, the culture media are removed and replaced with culture media containing the compound (Ia) at 3 ppm. After 24 h of incubation, the supernatants are collected.
The reference anti-inflammatory element is dexamethasone (Sigma) used at 0.4 ppm. A control having undergone the same experimental conditions without the compound (Ia) (CTL), as well as a non-induced control (CTL without IL-1β), are also carried out.
The quantification of the IL-8 in 50 μl of the culture supernatants is measured by an ELISA test (human CXCL8/IL-8 Immunoassay, R&D Systems).
Each treatment is carried out in triplicate.

[3] = system: normal human Keratinocytes (NHEK); assay: Reactive oxygen species (H2DCFDA probe) in NHEK after single UVA stress; assay type: cell-based; conditions: 24 h incubation; (Ia) 3 ppm, Trolox 20 ppm, Quercetin 18 ppm; UVA 10 J/cm2; normalised to viability (MTS); CTL UVA 289687.6, CTL without stress 16441.9
Protocol: The cells used for this example are normal human Keratinocytes (NHEK).
The antioxidant properties (neutralising the production of reactive oxygen species) of the compound (Ia) are evaluated after a single stress with UVAs on NHEKs, by a test based on the use of the fluorescent probe H2DCFDA on a triple culture.
H2DCFDA (2′-7′dichlorodihydrofluorescein diacetate, Fischer Scientific) is a probe that, after having diffused into the cell and after its acetate group has been split by intracellular esterases, can be oxidised by free radicals (H2O2) into DCF (2′-7′ dichlorofluorescein), a fluorescent compound. The production of the free radicals can thus be quantified by the level of fluorescence emitted by the oxidised probe. The more the cell produces free radicals, the higher the level of fluorescence detected.
After 24 hours of incubation with the compound (Ia) (3 ppm in an aqueous solution with 0.1% dimethylsulfoxide) or the reference elements, the cells are placed in the presence of the H2DCFDA probe at 3 ppm for 1 hour at 37° C., 5% CO2 in order to allow its intracellular diffusion.
The reference antioxidant elements are: Trolox ([…], Sigma), at 20 ppm and Quercetin (quercetin dihydrate, Sigma), at 18 ppm.
After one rinsing, the cells are subjected to a single stress with UVAs (in the absence of compound (Ia)) at a rate of 10 joules per square centimetre. The quantification of the fluorescence emitted (excitation: 485 nm; emission: 520 nm) is carried out immediately after the end of the UVA stress. […]
In order to provide a result representative of the cellular population of each condition after a single stress with UVAs, a cellular viability test (MTS) is carried out immediately after the quantification of the fluorescence emitted. The fluorescence values are thus normalised with respect to the cellular viabilities in order for it to be possible to compare the levels of fluorescence of the various conditions to each other.

| Compound | Morphology of the epidermis after UVA irradiation (histological analysis) [1] | percentage of nuclei positive for marking with γ-H2AX, compared with controls [2] | % survival of the cells (NHEK cells) [%] | Quantification of the IL8 (optical density) (IL-8) | Assay of the fluorescence with H2DCFDA after irradiation of NHEKs with UVAs [3] |
| --- | --- | --- | --- | --- | --- |
| Cc1ncc(CO)c(CNC(=O)CCCC[C@@H]2CCSS2)c1O [Comp.1, reference compound] | phenotype of the irradiated sample is also found | level similar to the irradiated sample | – | – | – |
| COc1cc(/C=C/C(=O)NCc2c(CO)cnc(C)c2O)ccc1O [Compound (Ib), (E)-3-(4-hydroxy-3-methoxyphenyl)-N-((3-hydroxy-5-(hydroxymethyl)-2-methylpyridin-4-yl)-methyl)-acrylamide] | – | – | 76 | – | – |
| COc1ccc(/C=C/C(=O)NCc2c(CO)cnc(C)c2O)cc1O [Compound (Ic), (E)-3-(3-hydroxy-4-methoxyphenyl)-N-((3-hydroxy-5-(hydroxymethyl)-2-methylpyridin-4-yl)-methyl)-acrylamide] | totally protected | same phenotype as the non-irradiated control sample | – | – | – |
| Cc1ncc(CO)c(CNC(=O)/C=C/c2ccc(O)cc2)c1O [Compound (Id), (E)-N-((3-hydroxy-5-(hydroxymethyl)-2-methylpyridin-4-yl)-methyl)-3-(4-hydroxyphenyl)-acrylamide] | partly protected | clearly reduced with respect to the irradiated control sample | – | – | – |
| C[C@@H]1C[C@H]2[C@@H]3CCC4=CC(=O)C=C[C@]4(C)[C@@]3(F)[C@@H](O)C[C@]2(C)[C@@]1(O)C(=O)CO [Dexamethasone, dexamethasone, reference compound] | – | – | – | 0.13 | – |
| O.O.O=c1c(O)c(-c2ccc(O)c(O)c2)oc2cc(O)cc(O)c12 [Quercetin, quercetin dihydrate, reference compound] | – | – | – | – | 207589.6 |
| O=C(O)/C=C/c1ccc(O)c(O)c1 [caffeic acid, reference compound] | phenotype of the irradiated sample is also found | level similar to the irradiated sample | 73 | – | – |
| Cc1ncc(CO)c(CN)c1O [pyridoxamine, reference compound] | phenotype of the irradiated sample is also found | level similar to the irradiated sample | – | – | – |

From patent US10918891B2, “Cosmetic treatment method for the skin” (SYNTIVIA, priority 2016, dated 2021)
